{"source": "paper PMC11336009", "about": "(GeroScience, 2024)", "key": {"[1]": {"test": "Body weight of 6-OHDA lesioned rats under chronic gliptin treatment", "format": "in vivo, rat", "conditions": "12 mg/kg daily from day 7 after lesioning, one day before and 28 days after lesioning", "procedure": "Gliptin treatment was initiated either prior to or after 6-OHDA lesioning (early and delayed treatment, respectively) as follows. […] Specifically for drug admixture into diet, drug was solubilized in 100% ETOH that was then added to the 16.2 g of food chow. Thereafter, the ETOH was evaporated off. […] Animals were weighed twice weekly and the amount of drug added to the chow was modified accordingly to maintain the daily required dose. […] Specifically, the 10 mg/kg oral daily drug dose in our rat studies is equivalent to the routine human daily oral dose (100 mg in a 65 kg human) of these gliptins used in T2DM, and the 30 mg/kg rat dose is equivalent to a threefold higher dose that is well-tolerated in humans."}, "[2]": {"system": "6-OHDA unilateral medial forebrain bundle lesioned rat", "test": "Methamphetamine-induced rotation in unilateral 6-OHDA lesioned rats", "format": "in vivo", "conditions": "for Meth-induced ipsilateral rotation vs vehicle: early treatment 10 mg/kg daily p.o. from 7 days before lesioning, meth 2.5 mg/kg s.c. on days 20 and 30"}, "[3]": {"system": "6-OHDA unilateral medial forebrain bundle lesioned rat", "test": "BrdU immunoreactivity (neurogenesis marker) in SVZ and striatum of 6-OHDA lesioned rats", "format": "in vivo", "conditions": "delayed treatment 30 mg/kg daily p.o.; BrdU 50 mg/kg i.p. day 8 to 20; day 21", "procedure": "Gliptin treatment was initiated either prior to or after 6-OHDA lesioning (early and delayed treatment, respectively) as follows. […]. An estimated dose for a 250-g rat under this treatment was 10 mg/kg/day. […]. An estimated, clinically relevant, dose for a 250 g rat under this treatment was thus 30 mg/kg/day. Specifically for drug admixture into diet, drug was solubilized in 100% ETOH that was then added to the 16.2 g of food chow. Thereafter, the ETOH was evaporated off. […] Animals were weighed twice weekly and the amount of drug added to the chow was modified accordingly to maintain the daily required dose. […]. […] Specifically, the 10 mg/kg oral daily drug dose in our rat studies is equivalent to the routine human daily oral dose (100 mg in a 65 kg human) of these gliptins used in T2DM, and the 30 mg/kg rat dose is equivalent to a threefold higher dose that is well-tolerated in humans.\nFollowing the exact same protocol described in Yin et al., 2012 [34] and Harvey et al. 2004 [36], anesthetized rats were subjected to a 6-OHDA unilateral medial forebrain bundle lesion. Briefly, 6-OHDA (2.27 µg/µL × 5 µL in 0.9% NaCl containing 0.2 mg/ml ascorbic acid) was unilaterally injected into the medial forebrain bundle (-4.4 mm AP, 1.2 mm ML relative to bregma and 8.4 mm below skull) over 4 min through a syringe pump (Micro 4, WPI, Sarasota, FL), as approved under National Health Research Institutes, Taiwan, Protocol # 102,068-A; 102,102-A. Following this procedure, all animals were monitored daily for adverse signs of health for 1 week (in line with the approved protocols).\nBrdU (Sigma-Aldrich, St. Louis, MO) was injected parenterally (i.p.) from day 8 to day 20 after 6-OHDA lesioning at the dose of 50 mg/kg/day as a marker of neurogenesis. Animals were euthanized for immunostaining on day 21.\nBrdU and TH localization was determined by immunohistochemistry. Serial sections of the entire brain were cut at 30 μm thickness by cryostat. One series from every sixth section was stained for TH. To control for staining variability, specimens from all experimental groups were included in every batch and reacted together in a net well tray under the same conditions. Sections were rinsed in 0.1 M phosphate buffer (PB), blocked with 4% bovine serum albumin (BSA) and 0.3% Triton x-100 in 0.1 M PB. […]\nTH immunoreactivity and BrdU cell number in striatum were averaged from 3 brain sections with visible anterior commissure in each animal. TH immunoreactivity in SNc was measured every 6th Sect. […] Nigral volume was analyzed using Cavalieri's method."}, "GLP-1 and GIP": {"system": "GLP-1 and GIP", "test": "Active GLP-1 and GIP measurement in rat plasma and CSF (ELISA)", "format": "in vivo", "conditions": "30 mg/kg daily p.o. day 7 to 45, day 45", "procedure": "Plasma was obtained from whole blood samples at the time of euthanasia (centrifugation 10,000xG 60 s at 4 °C), and CSF was obtained from the cisterna magna. Samples were evaluated by ELISA using kits from IBL (Immuno-Biological Laboratories, Inc.) or from Millipore, following their protocols."}, "[4]": {"system": "TNF-α, IL-6, Iba-1 and GFAP", "test": "Neuroinflammatory measures in brain (TNF-α, IL-6 ELISA; Iba-1, GFAP Western blot)", "format": "in vivo, rat", "conditions": "30 mg/kg daily p.o. day 7 to 45; day 45", "procedure": "To quantify rat brain cytokine levels, brain tissues were homogenized in TPER (Tissue Protein Extraction Reagent) (ThermoFisher Scientific) using a Biomasher Homogenizer. Inhibitors of phosphatase and protease were added into the TPER to prevent protein degradation. Tissues were then sonicated for 10 pulses and centrifuged at 10,000 g for 10 min at 4 °C. The supernatant was used to measure brain cytokine levels using rat TNF-α ELISA kits from e-Bioscience (San Diego, CA, USA) and rat IL-6 ELISA kits from Biolegend (San Diego, CA, USA). The final results were normalized to protein content, as measured by BCA (bicinchoninic acid) assay. Brain tissue Iba-1 and GFAP levels were quantified by Western blot (Iba-1 and GFAP antibodies Santa Cruz Biotechnology, Inc.) and used in 1:100 dilution)."}, "[5]": {"conditions": "delayed treatment 30 mg/kg daily p.o. from day 7 to 45, rotation on days 20, 30 and 40"}}, "data": [{"smiles": "N[C@@H](CC(=O)N1CCn2c(nnc2C(F)(F)F)C1)Cc1cc(F)c(F)cc1F", "note": "[Sitagliptin]", "values": [{"measurement": "Body weight in 6-OHDA lesioned rats", "setting": "[1]", "value": "did not alter body weight"}, {"measurement": "Meth-induced rotation vs vehicle", "setting": "[2]; [5]", "value": "significantly attenuated"}, {"measurement": "Meth-induced ipsilateral rotation vs vehicle", "setting": "[2]", "value": "small but significant difference"}, {"measurement": "BrdU labeling in the SVZ vs vehicle", "setting": "[3]", "value": "did not alter"}, {"measurement": "BrdU labeling in the lesioned striatum vs vehicle", "setting": "[3]", "value": "significantly increased"}, {"measurement": "CSF GIP level vs vehicle", "setting": "GLP-1 and GIP; CSF", "value": "elevated"}, {"measurement": "Plasma GIP level vs vehicle", "setting": "GLP-1 and GIP", "value": "elevated"}, {"measurement": "Plasma GLP-1 level vs vehicle", "setting": "GLP-1 and GIP", "value": "elevated"}, {"measurement": "GFAP level on the lesioned side of brain (striatum) vs vehicle", "setting": "[4]", "value": "reduced levels"}, {"measurement": "IL-6 level on the lesioned side of brain (striatum) vs vehicle", "setting": "[4]", "value": "reduced levels"}, {"measurement": "Iba1 level on the lesioned side of brain (striatum) vs vehicle", "setting": "[4]", "value": "reduced levels"}, {"measurement": "TNF-α level on the lesioned side of brain (striatum) vs vehicle", "setting": "[4]", "value": "reduced levels"}]}, {"smiles": "O=C([C@@H]1C[C@H](N2CCN(c3ncccn3)CC2)CN1)N1CCC(F)(F)C1", "note": "[PF-00734,200, Gosogliptin]", "values": [{"measurement": "Body weight in 6-OHDA lesioned rats", "setting": "[1]", "value": "did not alter body weight"}, {"measurement": "Meth-induced rotation vs vehicle", "setting": "[2]; [5]", "value": "significantly attenuated"}, {"measurement": "Meth-induced rotational behavior vs vehicle", "setting": "[2]; delayed treatment, low dose 10 mg/kg daily p.o. from day 7", "value": "did not alter rotational behavior"}, {"measurement": "Meth-induced ipsilateral rotation vs vehicle", "setting": "[2]", "value": "significantly reduced"}, {"measurement": "Meth-induced rotation vs vehicle", "setting": "[2]; i.c.v. 15.4 nmole 10 min prior to 6-OHDA lesioning, evaluated on day 30", "value": "no different from similarly vehicle-treated animals"}, {"measurement": "BrdU labeling in the SVZ vs vehicle", "setting": "[3]", "value": "did not alter"}, {"measurement": "BrdU labeling in the lesioned striatum vs vehicle", "setting": "[3]", "value": "significantly increased"}, {"measurement": "CSF GIP level vs vehicle", "setting": "GLP-1 and GIP; CSF", "value": "elevated"}, {"measurement": "CSF GLP-1 level vs vehicle", "setting": "GLP-1 and GIP; CSF", "value": "elevated"}, {"measurement": "Plasma GIP level vs vehicle", "setting": "GLP-1 and GIP", "value": "elevated"}, {"measurement": "Plasma GLP-1 level vs vehicle", "setting": "GLP-1 and GIP", "value": "elevated"}, {"measurement": "GFAP level on the lesioned side of brain (striatum) vs vehicle", "setting": "[4]", "value": "reduced levels"}, {"measurement": "IL-6 level on the lesioned side of brain (striatum) vs vehicle", "setting": "[4]", "value": "reduced levels"}, {"measurement": "Iba1 level on the lesioned side of brain (striatum) vs vehicle", "setting": "[4]", "value": "reduced levels"}, {"measurement": "TNF-α level on the lesioned side of brain (striatum) vs vehicle", "setting": "[4]", "value": "reduced levels"}]}]}
